From ChEMBL document CHEMBL1130443, “Enhanced DNA photocleavage and binding properties of sapphyrin-polyamine conjugates” (Bioorg Med Chem Lett, 1997)

Legend:
Type in all cases: nucleic-acid assay
Nucleic Acid [1] = assay: Compound was measured for the inhibition of DNA cleavage against […] plasmid in the presence of 2M NaCl.
Nucleic Acid [2] = assay: The C50 value refers to the concentration of compound required to displace 50% of the ethidium bromide from the DNA.; details: Bos taurus
Nucleic Acid [3] = assay: Compound was measured for the inhibition of DNA cleavage against […] plasmid in the presence of 0.2 M sodium dodecyl sulfate(SDS).
Nucleic Acid [4] = assay: Compound was measured for the inhibition of DNA cleavage against […] plasmid in the presence of 0.2 M sodium dodecyl sulfate (SDS).

CCc1c(CC)c2cc3nc(cc4[nH]c(c(C)c4CC)c4[nH]c(cc5nc(cc1[nH]2)C(CCC(=O)NCCN(CCN)CCN)=C5C)c(CC)c4C)C(C)=C3CCC(=O)NCCN(CCN)CCN was tested. Which inhibition (Nucleic Acid [1]) did it give?
Its inhibition is 93%.

And the C50 (Nucleic Acid [2])?
Its C50 is 0.114 µM.

And the inhibition (Nucleic Acid [3])?
Its inhibition is 41%.

What does the source list for CCC1=C(CC)c2cc3[nH]c(cc4[nH]c(c(C)c4CC)c4[nH]c(cc5nc(cc1n2)C(CCC(=O)NCCOCCOCCN)=C5C)c(CC)c4C)c(C)c3CCC(=O)NCCOCCOCCN?
inhibition (Nucleic Acid [1]): 66%; C50 (Nucleic Acid [2]): 0.062 µM; inhibition (Nucleic Acid [3]): 31%

CCc1c(CC)c2cc3nc(cc4[nH]c(c(C)c4CC)c4[nH]c(cc5nc(cc1[nH]2)C(CCC(=O)NCCNCCN)=C5C)c(CC)c4C)C(C)=C3CCC(=O)NCCNCCN was tested. Which inhibition (Nucleic Acid [1]) did it give?
The inhibition was 87%.

What about the C50 (Nucleic Acid [2]) of the same compound?
Its C50 is 0.127 µM.

What about the inhibition (Nucleic Acid [3]) of the same compound?
Its inhibition is 47%.

With NCCN(CCN)CCN as the compound, how does the C50 (Nucleic Acid [2]) read?
Its C50 is 28 µM.

CCc1c(CC)c2cc3nc(cc4[nH]c(c(C)c4CC)c4[nH]c(cc5nc(cc1[nH]2)C(CCC(=O)N(CCO)CCO)=C5C)c(CC)c4C)C(C)=C3CCC(=O)N(CCO)CCO was tested. Which inhibition (Nucleic Acid [1]) did it give?
The inhibition was 92%.

What about the C50 (Nucleic Acid [2]) of the same compound?
The C50 was 1.2 µM.

And the inhibition (Nucleic Acid [4])?
Its inhibition is 100%.
